We go through eleven compounds from publication PMC6009942, “Synthesis and molecular docking studies of some 4-phthalimidobenzenesulfonamide derivatives as acetylcholinesterase and butyrylcholinesterase inhibitors” (Journal of Enzyme Inhibition and Medicinal Chemistry, 2016).

What is called IC50 is the concentration at which inhibition is half-maximal. Read a high IC50 as a need for much substance.

Assay [1] has as its target T1, BuChE (E.C.3.1.1.8., from equine serum) (Equus caballus, UniProt P81908).
T1 construct: BuChE (E.C.3.1.1.8., from equine serum); purchased Sigma-Aldrich (Steinheim, Germany); host or cells: equine serum
Put plainly: BuChE inhibition, modified Ellman colorimetric method. It counts as biochemical. The conditions noted are these: pH 8.0, 5-min incubation, mean ± SEM of triplicate independent experiments. From the text: (§1) AChE (E.C.3.1.1.7., Type VI-S, from electric eel) and BuChE (E.C.3.1.1.8., from equine serum) were purchased from Sigma-Aldrich (Steinheim, Germany). 5,5′-Dithiobis(2-nitrobenzoic acid) (DTNB, Ellman’s reagent) acetylthiocholine iodide (AChI) and butyrylthiocholine iodide (BChI) used as substrates were obtained from Fluka. Buffer compounds (potassium dihydrogen phosphate, potassium hydroxide) and sodium hydrogen carbonate were purchased from Merck (Darmstadt, Germany). Spectrophotometric measurements were performed on a Shimadzu 160-A UV-Vis spectrophotometer.
(§2) The inhibitory effects of the synthesized compounds on AChE and BuChE were evaluated using a slightly modified colorimetric method of Ellman et al., with galantamine as the reference compound[41–45]. Prior to use, all solutions were adjusted to 20 °C. Enzyme solution (100 μL) and inhibitor solution (100 μL) were added into a cuvette containing the phosphate buffer (3.0 mL, 0.1 M; pH 8.0). After 5-min incubation, required aliquots of the DTNB solution (100 μL) and of the AChI/BChI (20 μL) were added. After rapid and immediate mixing, the absorption was measured at 412 nm by UV spectroscopy. As a reference, an identical solution of the enzyme without the inhibitor is processed following the same protocol. The blank reading contained 3.0 mL buffer, 200 μL water, 100 μL DTNB and 20 μL substrate. The enzyme activity was determined in the presence of at least five different concentrations of an inhibitor. Each concentration was assayed in triplicate. The samples were investigated immediately after preparation.
(§3) Inhibitory activities of the synthesized compounds against AChE and BuChE were evaluated by modified Ellman method, using galantamine as the reference compound[41–45]. The AChE inhibitory activity was determined by using electric eel acetylcholinesterase and the BuChE inhibitory activity was tested by using equine serum butyrylcholinesterase.
On the technique in general: DTNB colorimetry detects thiols as they appear.

Assay [2] concerns the target T2, AChE (E.C.3.1.1.7., Type VI-S, from electric eel) (Electrophorus electricus, UniProt O42275).
T2 construct: purchased Sigma-Aldrich (Steinheim, Germany) Type VI-S
The experiment in a line: AChE inhibition, modified Ellman colorimetric method. It is filed as biochemical. The conditions noted are these: pH 8.0, 5-min incubation, mean ± SEM of triplicate independent experiments.
Description: as §1, §2, §3

T1 sequence (P81908 whole entry): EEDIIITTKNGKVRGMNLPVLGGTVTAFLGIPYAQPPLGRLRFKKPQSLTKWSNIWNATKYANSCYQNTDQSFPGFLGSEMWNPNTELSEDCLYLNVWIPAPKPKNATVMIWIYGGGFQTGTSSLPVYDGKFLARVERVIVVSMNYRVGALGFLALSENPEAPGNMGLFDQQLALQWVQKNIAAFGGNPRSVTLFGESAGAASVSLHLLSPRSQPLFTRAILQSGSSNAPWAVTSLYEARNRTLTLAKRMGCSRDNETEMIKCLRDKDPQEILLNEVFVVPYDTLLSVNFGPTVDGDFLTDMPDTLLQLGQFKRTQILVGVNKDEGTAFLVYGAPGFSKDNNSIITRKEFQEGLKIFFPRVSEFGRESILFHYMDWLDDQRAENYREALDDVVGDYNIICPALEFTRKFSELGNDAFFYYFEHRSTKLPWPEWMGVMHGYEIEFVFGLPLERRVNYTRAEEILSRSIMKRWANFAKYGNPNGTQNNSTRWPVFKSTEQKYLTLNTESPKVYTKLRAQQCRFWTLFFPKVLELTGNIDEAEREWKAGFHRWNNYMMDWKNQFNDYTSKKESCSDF
T2 sequence (O42275 24-633): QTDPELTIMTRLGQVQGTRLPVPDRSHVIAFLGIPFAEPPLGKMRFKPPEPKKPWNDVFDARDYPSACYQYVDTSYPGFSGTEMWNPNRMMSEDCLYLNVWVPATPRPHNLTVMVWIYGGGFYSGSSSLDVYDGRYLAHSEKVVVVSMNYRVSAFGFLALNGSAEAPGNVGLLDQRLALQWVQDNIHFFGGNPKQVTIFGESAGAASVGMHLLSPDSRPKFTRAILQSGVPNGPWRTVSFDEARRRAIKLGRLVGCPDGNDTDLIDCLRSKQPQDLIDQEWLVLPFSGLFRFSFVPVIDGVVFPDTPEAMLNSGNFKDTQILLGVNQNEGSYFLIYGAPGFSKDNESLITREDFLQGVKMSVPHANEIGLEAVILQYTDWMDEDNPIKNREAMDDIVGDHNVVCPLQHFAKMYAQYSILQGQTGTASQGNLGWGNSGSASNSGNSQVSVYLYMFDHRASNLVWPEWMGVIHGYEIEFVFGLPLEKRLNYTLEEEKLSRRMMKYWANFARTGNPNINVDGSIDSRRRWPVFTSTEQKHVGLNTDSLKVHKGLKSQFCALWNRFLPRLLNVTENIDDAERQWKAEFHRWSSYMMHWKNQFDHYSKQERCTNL

For `Cc1ccccc1NS(=O)(=O)c1ccc(N2C(=O)c3ccccc3C2=O)cc1` [Compound 1, 4-(1,3-Dioxoisoindolin-2-yl)-N-(o-tolyl)benzenesulfonamide], the IC50 in assay [1] is 74.4 ± 2.34 µM; in assay [2], 6.84 ± 0.17 µM.
Taken in the same sequence, the figures for `COc1ccccc1NS(=O)(=O)c1ccc(N2C(=O)c3ccccc3C2=O)cc1` [Compound 2, 4-(1,3-Dioxoisoindolin-2-yl)-N-(2-methoxyphenyl)benzenesulfonamide] were 44.2 ± 13.4 µM and 6.79 ± 0.41 µM.
On the same counts, the results for `CC(C)c1ccccc1NS(=O)(=O)c1ccc(N2C(=O)c3ccccc3C2=O)cc1` [Compound 3, 4-(1,3-Dioxoisoindolin-2-yl)-N-(2-isopropylphenyl)benzenesulfonamide] are 13.4 ± 0.62 µM and 8.19 ± 0.13 µM.
On the same counts, the results for `Cc1ccc(NS(=O)(=O)c2ccc(N3C(=O)c4ccccc4C3=O)cc2)cc1` [Compound 4, 4-(1,3-Dioxoisoindolin-2-yl)-N-(p-tolyl)benzenesulfonamide] are 85 ± 13.7 µM and 8.61 ± 0.18 µM.
In the case of `COc1ccc(NS(=O)(=O)c2ccc(N3C(=O)c4ccccc4C3=O)cc2)cc1` [Compound 5, 4-(1,3-Dioxoisoindolin-2-yl)-N-(4-methoxyphenyl)benzenesulfonamide], the 50% inhibitory concentration (IC50) in assay [1] was determined as 87.2 ± 13.2 µM; in assay [2], 8.52 ± 0.18 µM.
On the same counts, the results for `O=C1c2ccccc2C(=O)N1c1ccc(S(=O)(=O)Nc2ccc(Cl)cc2)cc1` [Compound 6, 4-(1,3-Dioxoisoindolin-2-yl)-N-(4-chlorophenyl)benzenesulfonamide] are 78.1 ± 5.39 µM and 8.21 ± 0.14 µM.
On the same counts, the results for `CCN(CC)S(=O)(=O)c1ccc(N2C(=O)c3ccccc3C2=O)cc1` [Compound 7, 4-(1,3-Dioxoisoindolin-2-yl)-N,N-diethylbenzenesulfonamide] are more than 100 µM and 1.35 ± 0.08 µM.
On the same counts, the results for `O=C1c2ccccc2C(=O)N1c1ccc(S(=O)(=O)N2CCCC2)cc1` [Compound 8, 2-(4-(Pyrrolidin-1-ylsulfonyl)phenyl)isoindoline-1,3-dione] are more than 100 µM and more than 100 µM.
Regarding `O=C1c2ccccc2C(=O)N1c1ccc(S(=O)(=O)N2CCCCC2)cc1` [Compound 9, 2-(4-(Piperidin-1-ylsulfonyl)phenyl)isoindoline-1,3-dione], the half-inhibitory concentration (IC50) in assay [1] was more than 100 µM; in assay [2] it was 10.4 ± 0.61 µM.
Taken in the same sequence, the figures for `CC1CCCCN1S(=O)(=O)c1ccc(N2C(=O)c3ccccc3C2=O)cc1` (stereo not shown) [Compound 10, 2-(4-((2-Methylpiperidin-1-yl)sulfonyl)phenyl)isoindoline-1,3-dione] were 75.2 ± 23.8 µM and 8.05 ± 0.54 µM.
Taken in the same sequence, the figures for `O=C1c2ccccc2C(=O)N1c1ccc(S(=O)(=O)N2CCOCC2)cc1` [Compound 11, 2-(4-(Morpholinosulfonyl)phenyl)isoindoline-1,3-dione] were 56.7 ± 3.26 µM and 7.95 ± 0.22 µM.
